Where two headings read alike, the source gives them in different places.
Tests used:
[1] = tested on: LN319 (ENO1+/+) glioma cells; experiment: cells; details: LN-319, 144 h, read-out: IC50 LN319 (ENO1+/+), 6 day treatment
[2] = tested on: ENO1–/– intracranial orthotopic tumors; details: cited from earlier work; for effect on ENO1–/– intracranial orthotopic tumors: mice, 6: 10 mg/kg IV and IP, 5: 150 mg/kg IV and 100 mg/kg IP
[3] = 20% D2O, 31P NMR; for hydrolysis in human serum/plasma: 80% human plasma/serum
[4] = 80% DMEM, 20% D2O, 31P NMR
[5] = tested on: D423 (ENO1–/–) glioma cells; experiment: In vitro cytotoxicity of prodrugs, three-cell line assay
[6] = tested on: D423 ENO1 (ENO1-isogenic rescue) glioma cells; experiment: as above
[7] = tested on: NCI-60 cell line panel; assay type: cell-based; details: 10 μM, 24 h
[8] = tested on: LN319 (ENO1+/+) glioma cells; details: read-out: IC50 LN319 (ENO1+/+); 6 day treatment
[9] = read-out: IC50 D423 (ENO1–/–), 6 day treatment
[10] = Glioma cell, 144 h, read-out: IC50 D423 (ENO1–/–), 1% O2 (hypoxic), 6 days
[11] = Glioma cell, 144 h, read-out: IC50 D423 (ENO1–/–), 6 day treatment

Which results are given for O=C1C(P(=O)(O)O)CCCN1O (stereo not drawn) [compound 5]?
IC50 [1]: > 300 µM; effect on ENO1–/– intracranial orthotopic tumors [2]: profound tumor regression

Which results are given for CC(C)C(=O)ON1CCCC(P2(=O)OCc3ccccc3O2)C1=O (stereo not drawn) [compound 30, 3-(2-Oxido-4H-benzo[d][1,3,2]dioxaphosphinin-2-yl)-2-oxopiperidin-1-yl Isobutyrate]?
time by which no intact prodrug is detectable in human plasma/serum ([3]; 80% human plasma, 37 °C): ≤ 3 h; time by which no intact prodrug is present in cell culture media [4]: ≤ 3 h

What does the source list for “Cyanomethyl N-Benzyl-P-(1-hydroxy-2-oxopiperidin-3-yl)phosphonamidate [compound 25]”?
IC50 [5, 9]: 6.68 µM; IC50 ([5]; read-out: IC50 in D423 cells, 6 day treatment): ~7 µM; IC50 ([6]; read-out: IC50 D423 ENO1 (ENO1-tg), 6 day treatment): > 70 µM

With CC(=O)ON1CCCC(P(=O)(NCc2ccccc2)OCc2ccc([N+](=O)[O-])o2)C1=O (stereo not drawn) [compound 24] as the compound, how does the IC50 [5, 10] read?
Its IC50 is 0.136 µM.

For CC(C)OC(=O)[C@H](C)NP(=O)(Oc1ccccc1)C1CCCN(O)C1=O (stereo partly drawn) [compound 17], which “time prodrug remains stable/intact in human serum/plasma” value ([3]; 80% human plasma, 37 °C) is on record?
Its value is “over 9 h”.

And the “hydrolysis in human serum/plasma” value [3]?
The value was “incomplete even after 336 h”.

For CCCCCCCCCCCCCCCCOCCCOP(=O)(O)C1CCCN(O)C1=O (stereo not drawn) [compound 28], which “Average % Growth: Melanoma” value [7] is on record?
Its value is 5%.

Which IC50 [5, 11] does the source give for CC(C)(C)C(=O)OCOP(=O)(NCc1ccccc1)C1CCCN(O)C1=O (stereo not drawn) [20b] here?
The IC50 was 0.243 µM.

For CC(C)OC(=O)[C@H](C)N[P@](=O)(CO[C@H](C)Cn1cnc2c(N)ncnc21)Oc1ccccc1 [TAF, tenofovir alafenamide, reference compound], which “hydrolysis in human serum/plasma” value [3] is on record?
Its value is “occurs rapidly”.

Which results are given for O=C1C(P(=O)(NCc2ccccc2)Oc2ccc(F)cc2)CCCN1O (stereo not drawn) [compound 26, 4-Fluorophenyl N-Benzyl-P-(1-hydroxy-2-oxopiperidin-3-yl)phosphonamidate]?
IC50 [5, 11]: > 100 µM; IC50 ([6]; Glioma cell, 144 h, read-out: IC50 D423 ENO1 (ENO1-tg), 6 day treatment): > 100 µM

With “Bis(cyanomethyl)(1-hydroxy-2-oxopiperidin-3-yl)phosphonate [compound 29]” as the compound, how does the IC50 [8] read?
The IC50 was over 100 µM.

What about the “t1/2 in human plasma” value ([3]; 80% human plasma, 37 °C) of the same compound?
Its value is “approximately 10 h”.

And the IC50 [5, 9]?
The IC50 was over 100 µM.

Which “hydrolysis in human serum/plasma” value [3] does the source give for CC(C)(C)C(=O)OCOP(=O)(OCOC(=O)C(C)(C)C)C1CCCN(O)C1=O (stereo not drawn) [compound 6, POMHEX] here?
The value was “rapidly hydrolyzed to the mono-POM ester intermediate”.

What about the drug-related adverse events ([2]; 50 day in vivo evaluation) of the same compound?
Its drug-related adverse events is “no drug-related adverse events were observed”.

And the “effect on ENO1–/– intracranial orthotopic tumors” value [2]?
The value was “profound tumor regression”.

What about the IC50 [5, 10] of the same compound?
The IC50 was 0.201 µM.

And the IC50 ([5]; Glioma cell, 144 h, read-out: IC50 D423 (ENO1–/–), 21% O2, 6 days)?
The IC50 was 0.079 µM.

For CC(C)OC(=O)[C@H](C)NP(=O)(OCOC(=O)C(C)(C)C)C1CCCN(O)C1=O (stereo partly drawn) [20o], which IC50 [5, 11] is on record?
The IC50 was 0.202 µM.

From PMC9620261 (Journal of Medicinal Chemistry, 2022)
